Drawing on patent publication US10059723B2 (BIOMARIN PHARMACEUTICAL INC., priority 2011, dated 2018), this text covers IC50 for 1 molecule.

As a reminder, the IC50 is the point on the concentration scale where inhibition reaches its midpoint. Low readings indicate greater potency, high ones weaker potency.

This assay concerns the target T1, HDAC1 (Homo sapiens, UniProt Q13547).
T1 construct: purchased BPS Bioscience 50051
Nature of the assay: HDAC activity inhibition assay, HDAC1. The assay is classed as biochemical. The conditions noted are these: 2 hours pre-incubation, Fluor-de-Lys substrate 10 μM. On the procedure:
The HDAC activity inhibition assay was performed as follows to determine the ability of a test compound to inhibit HDAC enzymatic activity. […] Following pre-incubation, Fluor-de-Lys™ substrate (Enzo Life Sciences, Plymouth Meeting, Pa., BML-KI104-0050) was added to a final concentration of 10 μM and plates were further incubated for 30 minutes at room temperature. […] IC50 values were calculated by using a sigmoidal dose-response (variable slope) equation in GraphPad Prism® 5 for Windows (GraphPad Software, La Jolla, Calif.).

T1 sequence (Q13547 whole entry): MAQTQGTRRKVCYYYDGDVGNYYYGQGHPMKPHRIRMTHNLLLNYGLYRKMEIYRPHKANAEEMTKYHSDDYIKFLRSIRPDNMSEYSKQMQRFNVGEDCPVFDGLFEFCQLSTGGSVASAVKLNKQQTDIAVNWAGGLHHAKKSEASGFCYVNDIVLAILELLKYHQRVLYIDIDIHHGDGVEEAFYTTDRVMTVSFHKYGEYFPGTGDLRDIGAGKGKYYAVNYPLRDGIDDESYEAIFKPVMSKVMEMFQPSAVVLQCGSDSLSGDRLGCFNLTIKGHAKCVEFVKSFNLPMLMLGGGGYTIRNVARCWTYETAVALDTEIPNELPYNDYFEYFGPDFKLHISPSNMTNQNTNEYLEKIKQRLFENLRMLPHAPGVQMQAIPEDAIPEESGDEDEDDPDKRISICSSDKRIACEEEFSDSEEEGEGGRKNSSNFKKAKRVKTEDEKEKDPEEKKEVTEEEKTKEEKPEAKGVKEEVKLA

Consider `Cn1cc(/C=C/C(=O)Nc2ccc(F)cc2N)cn1` [C2], for which the IC50 was > 20 µM.
